From patent US20260258010A1, “THIOPHENE-2-CARBOXYLIC ACID DERIVATIVE, AND PREPARATION METHOD THEREFOR AND MEDICAL USE THEREOF” (CHINA PHARMACEUTICAL UNIVERSITY, priority 2023, published 2026) come the findings set out here.

The target of one experiment is T1, P2Y14 receptor (Homo sapiens, UniProt Q15391).
T1 construct: expressed in transfected cells; host or cells: HEK293
T1 sequence (Q15391 1-338): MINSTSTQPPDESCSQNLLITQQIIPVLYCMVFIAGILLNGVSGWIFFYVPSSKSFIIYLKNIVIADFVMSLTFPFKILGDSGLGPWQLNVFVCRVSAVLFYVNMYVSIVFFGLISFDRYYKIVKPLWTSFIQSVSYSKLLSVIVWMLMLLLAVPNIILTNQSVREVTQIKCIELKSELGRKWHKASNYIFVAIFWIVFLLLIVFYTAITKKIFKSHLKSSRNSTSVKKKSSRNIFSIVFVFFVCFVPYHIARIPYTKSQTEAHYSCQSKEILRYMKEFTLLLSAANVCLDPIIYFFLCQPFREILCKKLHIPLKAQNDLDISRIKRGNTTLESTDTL
Kind of experiment: cAMP inhibition assay in HEK293 cells stably transfected with the P2Y14 receptor (UDPG-stimulated, cAMP Glo). The note with it: 100 nM compound; HEK293 stably transfected with P2Y14 receptor; 30 μM Forskolin, 1 μM UDPG, 4 h; inhibition rate from cAMP content; read-out: Inhibition @ 100 nM. The format is cell-based. On the procedure:
An HEK293 cell strain stably transfected with the P2Y14 receptor was cultured in a DMEM culture medium (containing […], 100 U/mL penicillin, and 100 μg/mL streptomycin). Before the experiment, the cells were seeded into a culture plate at a density of 1×10^5 cells/well, and a serum-free culture medium was used instead. The cells were cultured at 37° C. with […] and 5% CO2 humidity. IBMX was added to inhibit the activity of PDEs, thereby ensuring a relatively high level of cAMP. The AC agonist Forskolin (30 μM) was adopted to stimulate the production of cellular cAMP. Test compounds at different concentrations (0.01 nm, 0.1 nm, 1 nm, 10 nm, and 100 nm) were added in advance, and PPTN was used as a positive control. Subsequently, 1 μM P2Y14 receptor agonist UDPG was added, and after 4 h, the content of intracellular cAMP was measured using a cAMP Glo™ Assay kit (PROMEGA Co. Ltd., USA). The inhibition rate was calculated based on the cAMP content.

A further experiment has as its system acute peritonitis model. Kind of experiment: LPS-induced acute peritonitis model, inflammatory factors in peritoneal fluids. It is filed as in vivo. Particulars: 5, 10 and 20 mg/kg by intraarticular injection, male ICR mice, 6 h after injection, vs model control, FIGS. 6-8. How it is done: Male clean-grade ICR mice were housed with free access to water and food, and with illumination for 12 h every day at an ambient temperature of 25±2° C. The animals were divided into several groups, that is, a normal control group, a model control group, and administration groups (test compound and dexamethasone). An acute peritonitis model was induced by a single intraperitoneal injection of LSP, while an equal volume of physiological saline was injected into the joint cavity in the normal control group. Each administration group was given test compound 5 (5 mg/kg, 10 mg/kg, and 20 mg/kg) and dexamethasone (10 mg/kg) by intraarticular injection. 6 h after the injection, 8 mL of PBS was injected, and the peritoneal cavity fluids were collected.

Experiment [1] has as its system IL-1β in the supernatant of the THP-1 cell culture medium. The experiment is described as follows: IL-1β ELISA in supernatant of LPS/ATP-stimulated THP-1 cell culture medium. The format is cell-based, Human. The note with it: PPTN 5 μM, PMA-differentiated THP-1, LPS 100 ng/mL + ATP 5 mM, FIG. 5. On the procedure: Human THP-1 cells were cultured in an RPMI-1640 culture medium (containing 10% fetal bovine serum, 100 U/mL penicillin, and 100 μg/mL streptomycin) and seeded into a culture plate at a density of 1×10^5 cells/well before the experiment. The cells were cultured at 37° C. with 95% 02 and 5% CO2 humidity. Before the experiment, PMA was added at 100 ng/mL to each well, and the cells were incubated for 24 h to induce the differentiation of the THP-1 cells into macrophages. Test compound 5 (2.5 μM, 5 μM, and 10 μM) and PPTN (5 μM) were added to the culture medium in advance for intervention. After 1 h, LPS at a final concentration of 100 ng/mL was added to the cells. After 3 h, ATP at a final concentration of 5 mM was added. After 1 h, the indexes were determined as follows:
The level of IL-1β in the supernatant of the cell culture medium was detected by an ELISA kit (Shenzhen NeoBioscience Technology Co., Ltd.), and the results are shown in FIG. 5.
Background: ELISA stands for enzyme-linked immunosorbent assay.

With `Cc1ccc(C(=O)Nc2cc(C(=O)O)sc2Oc2ccc(C)nc2)cc1` [Compound 5, 5-((6-methylpyridin-3-yl)oxy)-4-(4-methylbenzamido)thiophene-2-carboxylic acid], the inhibition (in general, the share of the control response that was lost under treatment) at 0.1 µM on P2Y14 receptor was 99.4%. For the same compound, in the experiment with acute peritonitis model, the “gene expression levels of inflammatory factors in mouse peritoneal fluids” value was “down-regulate the gene expression levels of inflammatory factors to different degrees”.

Take `Cc1ccc(Oc2sc(C(=O)O)cc2NC(=O)c2cnn(C)c2)cn1` [Compound 18-5]: on P2Y14 receptor, the inhibition at 0.1 µM amounted to 45.8%.

In the case of `O=C(O)c1cc(-c2ccc(C3CCNCC3)cc2)c2ccc(-c3ccc(C(F)(F)F)cc3)cc2c1` [PPTN], the “level of IL-1β in the supernatant of the cell culture medium” value in experiment [1] is listed as “showed an expected effect”.
